According to patent publication US20240209022A1, “NOVEL PEPTIDE HAVING ANTI-INFLAMMATORY AND TISSUE REGENERATIVE ACTIONS” (KOREA RESEARCH INSTITUTE OF BIOSCIENCE AND BIOTECHNOLOGY, priority 2020, published 2024):

Key:
[1] = tested on: LPS-induced cognitive and memory disorder mice; test: Novel object recognition test in LPS-induced cognitive/memory disorder model; format: in vivo, C57BL/6J mice; details: oral; LPS 250 μg/kg/day for 7 days; vs control group
Protocol: LPS was intraperitoneally injected to C57BL/6J male mice at 250 μg/kg/day daily for 7 days to induce cognitive and memory disorders. Amuc_1409, a protein derived from Akkermansia muciniphila, was orally administered to the mice by 5 μg daily from one week before LPS administration until the cognitive and memory test was performed. PEP002, PEP003, PEP004, or PEP005 was dissolved in PBS buffer at a concentration of 2.4 μM and then orally administered to the mice by 150 μL per animal daily at the same time once a day from 3 days before LPS administration until the cognitive and memory test was performed. To the control group (vehicle), PBS was orally administered in the same volume.
In order to test the effect of improving cognitive function in mice with cognitive and memory disorder administered with Amuc_1409 or PEP002, PEP003, PEP004, or PEP005, a novel object recognition test was performed. When the object seen 24 hours ago and a novel object were provided, the exploration time and the number of explorations for the novel object were measured to test cognition and memory.

[2] = tested on: C2C12 myoblasts; test: Dexamethasone-induced atrophy gene expression in C2C12 myoblasts; format: cell-based; details: 64 nM peptide together with dexamethasone (25 μM); RT-qPCR
Protocol: Myoblast C2C12 (myoblast) was dispensed into a 6 well plate, and then cultured in a DMEM medium containing 10% FBS and 1% antibiotics at 37° C. in a 10% CO2 incubator. Thereafter, in order to induce differentiation, the medium was replaced with a differentiation medium containing 2% horse serum, the C2C12 cells were treated with PEP004 and PEP005 at a concentration of 64 nM during the time for induction of differentiation, and formation of myotubes was observed.
After differentiation of myoblasts, the cells were treated with dexamethasone (25 μM), which causes muscle atrophy, and PEP004 and PEP005 simultaneously, and then RNA was extracted from the cells using Trizol. Reverse transcriptase was added to the obtained RNA and reacted to synthesize cDNA, and SYBR Green and primers were added to perform quantitative real-time PCR (RT-qPCR). Expression levels of Atrogin-1 and MuRF1, which are factors involved in muscle atrophy, were measured to determine whether atrophy of differentiated myoblasts was inhibited.

[3] = tested on: APP/PS1 Alzheimer's disease mice; test: Novel object recognition test in APP/PS1 Alzheimer's disease mice; format: in vivo; details: oral for 8 weeks; vs vehicle
Protocol: To 5-month-old APP/PS1 Alzheimer's disease male mice with amyloid deposition and cognitive and memory disorder in the brain, Amuc_1409 was orally administered to the mice by 5 μg daily 5 days a week for 8 weeks. PEP001 was dissolved in PBS buffer at a concentration of 2.4 μM, and then orally administered to the mice by 150 μL per animal 5 days a week for 8 weeks. To the control group (vehicle), PBS was orally administered in the same volume. In addition, normal mice (Non-Tg) not administered with the novel protein fragments were used as a control group.
In order to test the effect of improving cognitive function in APP/PS1 Alzheimer's disease mice administered with Amuc_1409 and PEP001, a novel object recognition test was performed. When the object seen 24 hours ago and a novel object were provided, the exploration time and the number of explorations for the novel object were measured to test cognition and memory.

[4] = tested on: BTBR mice; test: Social (sniffing) behavior in BTBR developmental disability model; format: in vivo; details: oral, after 4 weeks of administration; vs vehicle
Protocol: In order to verify the efficacy of the peptides of the present invention on developmental disability, BTBR mice (BTBR T^+ltpr3^tf/J (BTBR)), a developmental disability model, were used as an experimental animal.
To 3-week-old male BTBR mice, Amuc_1409 was orally administered by 5 μg daily 5 days a week, and PBS (phosphate-buffered saline) was administered to the control group. PEP001, PEP002, PEP003, PEP004, and PEP005 were each dissolved in PBS buffer at a concentration of 2.4 μM and orally administered to the mice by 150 μL per animal at the same time once a day 5 days a week, and novel tetrapeptides PEP006, PEP007, PEP008, PEP009, and PEP010 and novel tripeptides PEP011 and PEP013 were each dissolved in PBS buffer at 0.2 μg/150 μL and orally administered to the mice by 150 μL per animal at the same time once a day 5 days a week. After 4 weeks of administration, behavioral evaluation was performed by observing the social behavior of the mice. The mice were allowed to freely consume sterilized feed and water in a breeding facility in a specific pathogen free environment where the temperature was maintained at 22° C. to 24° C., and were bred while maintaining a 12-hour day/night cycle.

[5] = tested on: Human skin keratin cell line (HaCaT); test: UVB photoaging gene expression in human skin keratinocytes; format: cell-based; details: 30 nM; UVB 10 mJ/cm^2; vs control group irradiated with UVB
Protocol: An experiment was conducted to examine the skin regeneration ability of the peptides of the present invention. Human skin keratin cell line (HaCaT) was cultured in DMEM medium containing 10% fetal bovine serum (FBS) and 1% penicillin-streptomycin at 37° C. and 5% CO2. When the cell density reached 80%, the cells were dispensed into a 6-well plate at 4×10^5 cells per well and cultured for 24 hours. After 24 hours, the cells were treated with Amuc 1409 at a concentration of 30 nM for 1 hour, washed twice with PBS (phosphate buffered saline) after 1 hour, and irradiated with ultraviolet light at 10 mJ/cm^2 using an ultraviolet (UVB) irradiation device (CL-1000 UV crosslinker; UVP, USA). After UV irradiation, the medium was replaced with serum-free medium, and the cells were immediately treated with Amuc_1409 for 8 hours.
In relation to skin wrinkles due to skin aging, in order to examine the expression of MMP-1 and MMP-3 genes, which are collagenase, and Col1a1 and Col3a1 genes, which are collagen synthesis enzymes, RNA was isolated from the cells in each well using Trizol (Invitrogen, USA) and quantified by nanodrop, and then cDNA was synthesized using 1 μg of each RNA. A mixture obtained by adding MMP-1, MMP-3, Col1a1 and Col3a1 primers and fluorescent dye AccuPower® 2× GreenStar™ qPCR Master Mix (BIONEER, Korea) to the synthesized cDNA was subjected to real-time polymerase chain reaction in a real-time PCR machine.

Row | Molecule | memory and cognitive function, novel object recognition test [1] | expression of Atrogin-1 [2] | expression of MuRF1 [2] | cognition and memory, novel object recognition test [3] | other results
1 | AVSSI (PEP002) | improved | – | – | – | –
2 | KGAY (PEP003) | improved | – | – | – | –
3 | GAY [PEP005] | improved | significantly decreased | significantly decreased | – | –
4 | AVSSIKGAY (PEP001) | – | – | – | significantly improved | –
5 | AVS (AVSSIKGAY) [PEP004] | improved | significantly decreased | significantly decreased | – | –
6 | Amuc_1409: SEQ ID NO: 15, functional fragment obtained by eliminating the leader sequence from SEQ ID NO: 14; protein derived from Akkermansia muciniphila (protein, Amuc_1409_fragment, protein derived from Akkermansia muciniphila) IPESSVPAAAVSSIKGAYPNAGPIEWDSEMHGMERIYEAEFRINGFQFDVKIAPDGKIVRIKEEIAASSLPEAVRASVLKRYPGCRIKEAEKITEGELVRYKVEVADSRDDYDVLIAPDGNILHVDR | improved | – | – | significantly improved | social behavior (sniffing time and frequency) [4]: significantly increased or tended to increase; expression of Col1a1 gene [5]: significantly increased; expression of Col3a1 gene [5]: significantly increased; expression of MMP-1 gene [5]: significantly decreased; expression of MMP-3 gene [5]: significantly decreased
